How the values were obtained:
[1] = test system: intrinsic coagulation pathway; assay: aPTT of wildtype mice after infusion of corn trypsin inhibitor; format: in vivo, mouse; details: CTI 50 μg/g body weight, n=4
Method: (§1) Alternatively, to test the impact of small molecule FXII inhibitors, wildtype mice were infused with the FXII inhibitor corn trypsin inhibitor (CTI, 50 μg/g body weight) 5 min prior to FeCl3-induced injury in the carotic artery (Wang et al. (2005) J. Thromb. Heamost. 3: 695-702). […] In none of the animals tested (0/4) vessel occluding thrombi developed within 30 min following application of FeCl3.
Global and single coagulation parameters were determined with an automated blood coagulation system (BCS, Dade Behring) with Dade Behring reagents according to the protocols for human samples detailed by the manufacturer. Principles of BCS assay protocols are available from Dade Behring package inserts, which can be found on Dade Behring's web site (http://www.dadebehring.com). D-dimers werde measured with the ELISA from Asserachrorn (Roche). Peripheral blood counts were determines on the Sysmex XE 2100 according to standard protocols.

wildtype mice = assay: FeCl3-induced injury in the carotid artery after infusion of corn trypsin inhibitor; format: in vivo, mouse
Method: as §1

Substance: corn trypsin inhibitor [CTI]
- aPTT [1]: 62 ± 11 s
- animals developing vessel occluding thrombi within 30 min following application of FeCl3 (wildtype mice; CTI 50 μg/g 5 min prior to injury, carotid artery): 0/4
- bleeding during the surgical procedure (wildtype mice; CTI 50 μg/g body weight): did not affect bleeding

Source: US8715672B2, “Treatment of diseases linked to pathological kinin formation” (CSL Behring GmbH, priority 2004, dated 2014)
